Test results from ChEMBL document CHEMBL1149857, “Novel azaphilones, kasanosins A and B, which are specific inhibitors of eukaryotic DNA polymerases beta and lambda from Talaromyces sp” (Bioorg Med Chem, 2008).
The source made the active and inactive calls. No cut-off for these calls is given here.

Assays:
Escherichia phage T7 = test: Inhibition of T7 RNA polymerase […] at 100 uM relative to control
[1] = target: Human immunodeficiency virus type 1 reverse transcriptase (Human immunodeficiency virus 1) (UniProt Q72547); test: Inhibition of HIV1 reverse transcriptase at 100 uM relative to control
[2] = target: T1, DNA topoisomerase 1 (Homo sapiens) (UniProt P11387); test: Inhibition of human DNA topoisomerase 1 at 100 uM relative to control
T1 sequence (whole entry): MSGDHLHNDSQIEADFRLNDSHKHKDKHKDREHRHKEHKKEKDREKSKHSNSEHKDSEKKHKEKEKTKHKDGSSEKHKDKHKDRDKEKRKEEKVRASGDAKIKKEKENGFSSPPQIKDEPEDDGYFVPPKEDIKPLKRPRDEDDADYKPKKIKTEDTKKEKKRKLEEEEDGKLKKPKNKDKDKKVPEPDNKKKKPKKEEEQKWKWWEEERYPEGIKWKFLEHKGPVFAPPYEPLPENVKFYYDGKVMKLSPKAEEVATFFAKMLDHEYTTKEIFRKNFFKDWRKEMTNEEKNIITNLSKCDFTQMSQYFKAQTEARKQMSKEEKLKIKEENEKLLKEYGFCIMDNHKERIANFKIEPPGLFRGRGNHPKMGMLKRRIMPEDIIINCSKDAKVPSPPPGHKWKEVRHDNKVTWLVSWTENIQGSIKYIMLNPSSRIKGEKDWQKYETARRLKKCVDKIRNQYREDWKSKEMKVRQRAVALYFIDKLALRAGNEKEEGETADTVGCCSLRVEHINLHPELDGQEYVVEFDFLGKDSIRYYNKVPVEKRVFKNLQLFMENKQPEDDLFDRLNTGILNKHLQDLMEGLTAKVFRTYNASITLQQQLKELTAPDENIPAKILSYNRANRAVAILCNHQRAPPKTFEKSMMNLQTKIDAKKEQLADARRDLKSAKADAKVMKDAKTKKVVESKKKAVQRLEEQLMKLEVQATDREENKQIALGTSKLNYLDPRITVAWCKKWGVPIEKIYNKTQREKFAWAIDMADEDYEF

Oncorhynchus masou = test: Inhibition of cherry salmon DNA polymerase delta at 100 uM
Brassica oleracea = test: Inhibition of cauliflower DNA polymerase alpha at 100 uM
DNA polymerase beta = DNA polymerase beta (Rattus norvegicus, UniProt P06766); test: Inhibition of rat DNA polymerase beta
[3] = target: DNA polymerase beta (Rattus norvegicus) (UniProt P06766); test: Inhibition of rat DNA polymerase beta at 100 uM
Bos taurus = species: Bos taurus; test: Inhibition of calf DNA polymerase alpha at 100 uM relative to control
Thermus aquaticus = test: Inhibition of Thermus aquaticus DNA polymerase at 100 uM
[4] = target: Polynucleotide kinase (Enterobacteria phage T4) (UniProt P06855); test: Inhibition of T4 polynucleotide kinase at 100 uM relative to control; details: Tequatrovirus T4
Polynucleotide kinase (Enterobacteria phage T4), sequence (P06855 whole entry): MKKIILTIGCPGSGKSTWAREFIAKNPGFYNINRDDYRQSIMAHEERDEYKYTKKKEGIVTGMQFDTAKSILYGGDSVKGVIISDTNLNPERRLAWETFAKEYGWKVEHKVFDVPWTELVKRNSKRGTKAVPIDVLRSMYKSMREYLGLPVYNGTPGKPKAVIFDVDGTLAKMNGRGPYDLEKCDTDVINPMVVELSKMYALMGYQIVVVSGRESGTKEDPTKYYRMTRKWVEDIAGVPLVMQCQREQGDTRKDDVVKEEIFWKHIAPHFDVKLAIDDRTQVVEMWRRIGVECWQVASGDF

Tequatrovirus T4 = test: Inhibition of T4 DNA polymerase at 100 uM
[5] = target: T2, DNA polymerase subunit gamma-1 (Homo sapiens) (UniProt P54098); test: Inhibition of human DNA polymerase gamma at 100 uM
T2 sequence (whole entry): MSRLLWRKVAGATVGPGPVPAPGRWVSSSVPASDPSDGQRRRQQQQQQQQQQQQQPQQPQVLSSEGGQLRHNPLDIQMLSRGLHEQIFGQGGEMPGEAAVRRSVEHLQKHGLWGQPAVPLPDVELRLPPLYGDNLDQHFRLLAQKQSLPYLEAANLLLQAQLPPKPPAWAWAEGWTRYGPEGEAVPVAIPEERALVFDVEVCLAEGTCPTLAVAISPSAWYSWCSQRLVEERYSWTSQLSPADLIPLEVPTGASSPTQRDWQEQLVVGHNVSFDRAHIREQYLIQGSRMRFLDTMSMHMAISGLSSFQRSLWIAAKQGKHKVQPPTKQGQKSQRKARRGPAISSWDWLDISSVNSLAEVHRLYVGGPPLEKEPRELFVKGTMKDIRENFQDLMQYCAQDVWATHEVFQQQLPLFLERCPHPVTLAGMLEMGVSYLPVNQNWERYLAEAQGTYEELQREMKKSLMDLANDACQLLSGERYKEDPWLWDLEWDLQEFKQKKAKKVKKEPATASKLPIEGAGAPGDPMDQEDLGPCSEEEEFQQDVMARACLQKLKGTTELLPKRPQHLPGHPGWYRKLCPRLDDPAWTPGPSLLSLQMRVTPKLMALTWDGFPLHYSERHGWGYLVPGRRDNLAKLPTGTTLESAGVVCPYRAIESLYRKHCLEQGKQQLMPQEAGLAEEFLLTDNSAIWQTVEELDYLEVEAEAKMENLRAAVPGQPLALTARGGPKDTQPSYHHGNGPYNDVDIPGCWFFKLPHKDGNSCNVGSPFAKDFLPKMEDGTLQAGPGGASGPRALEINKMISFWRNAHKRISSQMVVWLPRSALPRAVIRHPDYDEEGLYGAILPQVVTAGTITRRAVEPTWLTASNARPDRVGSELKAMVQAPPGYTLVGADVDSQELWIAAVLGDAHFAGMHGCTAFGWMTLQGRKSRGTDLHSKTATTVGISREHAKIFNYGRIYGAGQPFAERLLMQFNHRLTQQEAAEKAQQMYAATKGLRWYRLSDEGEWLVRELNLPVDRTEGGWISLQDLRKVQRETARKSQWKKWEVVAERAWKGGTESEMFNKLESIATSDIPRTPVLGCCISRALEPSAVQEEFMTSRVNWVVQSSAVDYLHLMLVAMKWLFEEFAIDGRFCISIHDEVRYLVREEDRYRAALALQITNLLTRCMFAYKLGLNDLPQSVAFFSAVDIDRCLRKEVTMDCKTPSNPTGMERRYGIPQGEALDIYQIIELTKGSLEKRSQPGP

[6] = target: DNA nucleotidylexotransferase (Bos taurus) (UniProt P06526); test: Inhibition of calf terminal deoxynucleotidyl transferase
DNA nucleotidylexotransferase (Bos taurus), sequence (P06526 whole entry): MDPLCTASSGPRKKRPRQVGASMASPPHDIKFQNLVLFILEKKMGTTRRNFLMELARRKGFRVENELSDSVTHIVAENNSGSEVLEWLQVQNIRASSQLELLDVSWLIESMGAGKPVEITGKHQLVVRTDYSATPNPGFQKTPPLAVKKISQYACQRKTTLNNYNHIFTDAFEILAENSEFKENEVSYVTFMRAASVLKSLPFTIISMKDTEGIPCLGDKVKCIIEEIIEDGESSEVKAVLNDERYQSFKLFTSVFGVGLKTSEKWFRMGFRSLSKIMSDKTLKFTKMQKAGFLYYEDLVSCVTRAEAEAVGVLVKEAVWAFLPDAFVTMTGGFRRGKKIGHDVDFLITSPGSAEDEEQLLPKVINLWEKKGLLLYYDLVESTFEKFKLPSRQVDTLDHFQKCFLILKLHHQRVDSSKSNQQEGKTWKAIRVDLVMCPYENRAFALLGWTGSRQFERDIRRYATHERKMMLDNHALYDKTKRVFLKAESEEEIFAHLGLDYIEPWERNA

[7] = target: Inosine-5'-monophosphate dehydrogenase 2 (Mus musculus) (UniProt P24547); test: Inhibition of mouse IMP dehydrogenase 2 at 100 uM relative to control
Inosine-5'-monophosphate dehydrogenase 2 (Mus musculus), sequence (P24547 whole entry, looked up): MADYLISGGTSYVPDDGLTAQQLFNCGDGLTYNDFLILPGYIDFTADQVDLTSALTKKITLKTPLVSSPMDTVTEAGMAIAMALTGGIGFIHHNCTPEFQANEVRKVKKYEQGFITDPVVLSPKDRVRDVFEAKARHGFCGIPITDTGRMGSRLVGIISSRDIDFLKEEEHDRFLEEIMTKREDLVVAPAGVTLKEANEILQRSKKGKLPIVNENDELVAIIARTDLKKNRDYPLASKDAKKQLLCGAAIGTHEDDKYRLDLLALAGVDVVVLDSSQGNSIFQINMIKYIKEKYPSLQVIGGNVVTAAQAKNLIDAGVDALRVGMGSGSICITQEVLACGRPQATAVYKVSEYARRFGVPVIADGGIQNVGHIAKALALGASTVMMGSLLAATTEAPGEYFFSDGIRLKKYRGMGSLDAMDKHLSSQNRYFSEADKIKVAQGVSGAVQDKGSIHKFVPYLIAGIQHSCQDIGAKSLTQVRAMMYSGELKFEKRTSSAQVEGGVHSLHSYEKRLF

[8] = target: Deoxyribonuclease-1 (Bos taurus) (UniProt P00639); test: Inhibition of bovine deoxyribonuclease 1 at 100 uM relative to control
Deoxyribonuclease-1 (Bos taurus), sequence (P00639 whole entry): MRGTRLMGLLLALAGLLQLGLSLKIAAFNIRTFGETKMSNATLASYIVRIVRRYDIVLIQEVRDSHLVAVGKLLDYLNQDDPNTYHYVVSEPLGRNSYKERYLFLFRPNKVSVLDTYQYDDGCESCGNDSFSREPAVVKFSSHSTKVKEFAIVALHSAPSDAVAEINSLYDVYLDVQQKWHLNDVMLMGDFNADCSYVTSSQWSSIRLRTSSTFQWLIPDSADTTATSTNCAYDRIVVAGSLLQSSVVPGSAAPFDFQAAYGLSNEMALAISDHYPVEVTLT

[9] = target: DNA topoisomerase 2-alpha (Homo sapiens) (UniProt P11388); test: Inhibition of human DNA topoisomerase 2 at 100 uM relative to control
DNA topoisomerase 2-alpha (Homo sapiens), sequence (P11388 whole entry): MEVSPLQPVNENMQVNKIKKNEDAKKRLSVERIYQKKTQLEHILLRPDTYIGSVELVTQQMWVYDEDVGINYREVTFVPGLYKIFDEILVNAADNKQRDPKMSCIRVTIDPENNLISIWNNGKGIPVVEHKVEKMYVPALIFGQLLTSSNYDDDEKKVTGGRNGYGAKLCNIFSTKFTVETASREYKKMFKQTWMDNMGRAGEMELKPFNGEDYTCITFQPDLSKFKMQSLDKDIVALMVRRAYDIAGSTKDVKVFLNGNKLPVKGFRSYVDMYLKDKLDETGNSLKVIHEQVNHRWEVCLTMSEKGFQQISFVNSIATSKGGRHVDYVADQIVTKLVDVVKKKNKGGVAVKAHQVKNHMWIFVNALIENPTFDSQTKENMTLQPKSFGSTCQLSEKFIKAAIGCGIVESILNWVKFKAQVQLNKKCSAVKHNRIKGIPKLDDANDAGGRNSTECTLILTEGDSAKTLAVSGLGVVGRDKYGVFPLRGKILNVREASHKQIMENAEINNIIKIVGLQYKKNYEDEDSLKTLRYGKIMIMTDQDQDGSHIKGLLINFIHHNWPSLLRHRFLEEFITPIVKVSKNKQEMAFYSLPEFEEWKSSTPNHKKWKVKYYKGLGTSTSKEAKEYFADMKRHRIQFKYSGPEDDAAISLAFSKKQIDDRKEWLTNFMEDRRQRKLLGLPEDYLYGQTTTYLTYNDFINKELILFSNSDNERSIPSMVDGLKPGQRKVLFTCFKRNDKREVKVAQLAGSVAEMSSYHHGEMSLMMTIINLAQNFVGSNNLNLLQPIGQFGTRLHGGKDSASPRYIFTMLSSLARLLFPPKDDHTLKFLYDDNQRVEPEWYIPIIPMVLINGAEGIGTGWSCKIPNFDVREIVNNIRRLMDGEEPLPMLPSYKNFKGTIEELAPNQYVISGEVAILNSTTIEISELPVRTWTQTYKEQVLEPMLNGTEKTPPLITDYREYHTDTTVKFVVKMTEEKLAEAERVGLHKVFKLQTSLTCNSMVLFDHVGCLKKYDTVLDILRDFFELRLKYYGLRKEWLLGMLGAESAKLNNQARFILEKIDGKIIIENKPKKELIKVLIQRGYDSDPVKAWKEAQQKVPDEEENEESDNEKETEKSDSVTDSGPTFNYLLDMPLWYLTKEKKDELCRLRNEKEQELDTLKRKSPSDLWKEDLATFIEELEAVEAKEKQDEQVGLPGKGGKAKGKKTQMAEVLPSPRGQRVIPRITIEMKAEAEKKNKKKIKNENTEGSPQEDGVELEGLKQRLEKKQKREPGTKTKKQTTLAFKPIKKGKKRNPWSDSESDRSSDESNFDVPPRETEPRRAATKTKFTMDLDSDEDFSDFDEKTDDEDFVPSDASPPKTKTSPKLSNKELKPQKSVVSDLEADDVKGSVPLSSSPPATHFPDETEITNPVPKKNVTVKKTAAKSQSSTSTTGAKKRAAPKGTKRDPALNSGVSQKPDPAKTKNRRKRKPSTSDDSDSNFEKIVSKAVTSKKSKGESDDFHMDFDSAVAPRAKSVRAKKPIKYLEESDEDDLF

[10] = target: T3, DNA polymerase subunit gamma-1 (Homo sapiens, UniProt P54098); test: Inhibition of human DNA polymerase gamma
T3 sequence (P54098 whole entry): T2 sequence (whole entry)

Escherichia coli = test: Inhibition of Escherichia coli DNA polymerase 1 Klenow fragment at 100 uM
[11] = target: Telomerase reverse transcriptase (Homo sapiens) (UniProt O14746); test: Inhibition of human telomerase at 100 uM relative to control
Telomerase reverse transcriptase (Homo sapiens), sequence (O14746 whole entry): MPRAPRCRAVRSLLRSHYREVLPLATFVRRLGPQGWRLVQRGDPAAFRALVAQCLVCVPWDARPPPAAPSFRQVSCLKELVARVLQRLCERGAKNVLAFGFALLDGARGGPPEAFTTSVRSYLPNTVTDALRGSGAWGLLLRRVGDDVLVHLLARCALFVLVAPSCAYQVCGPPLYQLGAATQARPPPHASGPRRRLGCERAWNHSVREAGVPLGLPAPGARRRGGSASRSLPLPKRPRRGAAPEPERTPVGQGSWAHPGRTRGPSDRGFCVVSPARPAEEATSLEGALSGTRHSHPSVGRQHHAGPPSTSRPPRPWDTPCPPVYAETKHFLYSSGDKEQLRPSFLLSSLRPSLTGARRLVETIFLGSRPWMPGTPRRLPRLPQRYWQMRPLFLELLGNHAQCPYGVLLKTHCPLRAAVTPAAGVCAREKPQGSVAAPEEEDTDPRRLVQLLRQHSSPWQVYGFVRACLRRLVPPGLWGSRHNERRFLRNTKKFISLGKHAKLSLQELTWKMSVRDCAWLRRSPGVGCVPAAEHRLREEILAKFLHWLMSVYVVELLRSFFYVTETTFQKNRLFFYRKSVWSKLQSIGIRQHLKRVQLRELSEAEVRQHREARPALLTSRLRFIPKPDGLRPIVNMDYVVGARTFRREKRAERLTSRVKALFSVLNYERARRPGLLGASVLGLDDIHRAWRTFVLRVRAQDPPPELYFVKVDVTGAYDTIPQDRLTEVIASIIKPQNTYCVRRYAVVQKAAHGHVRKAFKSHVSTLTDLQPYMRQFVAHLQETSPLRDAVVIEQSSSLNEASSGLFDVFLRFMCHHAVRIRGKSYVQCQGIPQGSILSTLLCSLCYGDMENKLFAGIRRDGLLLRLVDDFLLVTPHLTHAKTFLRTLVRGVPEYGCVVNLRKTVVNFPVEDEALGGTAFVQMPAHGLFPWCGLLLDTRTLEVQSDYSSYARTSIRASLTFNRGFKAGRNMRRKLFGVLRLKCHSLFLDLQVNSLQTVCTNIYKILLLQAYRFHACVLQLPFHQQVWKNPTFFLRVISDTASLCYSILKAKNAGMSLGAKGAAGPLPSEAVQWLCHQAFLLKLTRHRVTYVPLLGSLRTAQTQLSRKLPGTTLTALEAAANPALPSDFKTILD

Activity (Escherichia phage T7)	Activity [1]	Activity [2]	Activity (Oncorhynchus masou)	Activity (Brassica oleracea)	IC50 (DNA polymerase beta) [µM]	Activity [3]	Activity (Bos taurus)	Activity (Thermus aquaticus)	Activity [4]	Activity (Tequatrovirus T4)	Activity [5]	Activity [6]	Activity [7]	Activity [8]	Activity [9]	IC50 [10] [µM]	Activity (Escherichia coli)	Activity [11]	SMILES
inactive	inactive	inactive	inactive	inactive	27.3	Active	inactive	inactive	inactive	inactive	Active	inactive	inactive	inactive	inactive	35	inactive	inactive	COc1cc(C)c(C(=O)O[C@H]2CC3=C(COC(/C=C/CO)=C3)C(=O)[C@@]2(C)O)c(O)c1 [KASANOSIN A]
inactive	inactive	inactive	inactive	inactive	60.1	Active	inactive	inactive	inactive	inactive	Active	inactive	inactive	inactive	inactive	72.9	inactive	inactive	COc1cc(C)c(C(=O)O[C@]2(C)C(=O)C3=C(C=C(/C=C/CO)OC3)C[C@@H]2O)c(O)c1 [KASANOSIN B]
